Test results as given in patent US7893024B2, “Enhancement of iron chelation therapy” (priority 2002, dated 2011).
Where “and” joins values, the source holds several entries; their conditions need not be identical. Equal values may be shown once. Where a name gives a salt, the structure may show the parent alone.

Experiments:
ferritin [1] = molecular target: T1, ferritin (Aquarana catesbeiana, UniProt P07229); assay: Iron release from mineralized recombinant ferritin monitored as formation of Fe(II)-bipyridyl (A522 nm), NADH/FMN reductant; format: biochemical; details: for increase in the initial rate of iron release: in combination with the chelator 2,2′-bipyridine
T1 construct: made in house; host or cells: E. coli BL21-DE3-PLysS, vector pET-9a
T1 sequence (P07229 2-176): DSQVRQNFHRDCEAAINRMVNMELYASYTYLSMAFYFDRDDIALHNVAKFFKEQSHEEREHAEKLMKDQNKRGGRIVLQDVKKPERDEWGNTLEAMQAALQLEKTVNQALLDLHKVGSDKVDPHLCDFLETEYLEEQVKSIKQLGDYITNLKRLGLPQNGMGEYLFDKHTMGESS
Procedure: Briefly, as described in further detail below, recombinant ferritin was expressed, isolated, and mineralized. The mineralized, recombinant ferritin was incubated with a protein unfolding reagent (e.g., urea, guanidine, or Triton X-100). Chelator and reductant was then added to the reaction, and rates of iron release were monitored by UV absorbance detection of formation of Fe(II)-bipyridyl (A522 nm/sec).
Production of recombinant ferritin. Recombinant ferritin was expressed using bullfrog sequences as the kinetic properties have been particularly favorable for study (Takagi H., et al. (1998) J. Biol. Chem. 273:18685)(18)(19)(20). Crystallographic studies of frog and human ferritins (Trikha, J., Theil, E. C. & Allewell, N. M. (1995) J Mol Biol 248, 949-67)(Hempstead, P. D., Yewdall, S. J., Fernie, A. R., Lawson, D. M., Artymiuk, P. J., Rice, D. W., Ford, G. C., & Harrison, P. M. (1997) J. Mol. Biol. 268, 424-448) show very similar structures and mechanisms (Bou-Abdallah, F., Papaefthymiou, G. C., Scheswohl, D. M., Stanga, S. D., Arosio, P. & Chasteen, N. D. (2002) Biochem J. 364, 57-63)(Hwang, J., Krebs, C., Huynh, B. H., Edmondson, D. E., Theil, E. C. & Penner-Hahn, J. E. (2000) Science 287, 122-125)(18). […] Two proteins were compared in the study: H-wild type and H-L134P, an “open” pore protein for which the crystal structure is known (Takagi H., et al. (1998) J. Biol. Chem. 273:18685). Sequences coding H-wild type and H-L134P ferritin were inserted into the vector pET-9a and expressed in E. coli BL21-DE3-PLysS (Stratagene®). The recombinant proteins were isolated as the 24-subunit assembly without Fe (<0.5/subunit) using methods previously described (20).
Mineralization of ferritin. Recombinant ferritin was mineralized by adding a freshly prepared, acidic solution of FeSO4 (to minimize oxidation and hydrolysis) to apoferritin in buffer and incubating at room temperature for 1 hour and then overnight at 4° C., to complete hydrolysis of ferric mineral precursors (18). The final solution was 2.08 μM protein with 480 Fe/protein ([…]) in 0.1 M MOPS, 0.1M NaCl, pH=7. Sterile solutions of mineralized ferritin are stable for months to years.
Measurement of iron release rates. Rates of Fe exit from ferritin (rates of dissolving the Fe biomineral) were monitored as formation of Fe(II)-bipyridyl (A522 nm/sec). The reaction was started by mixing an equal volume of mineralized ferritin with an equal volume of a solution of a NADH (5 mM), FMN (5 mM), and bipyridyl (5 mM) as first described by Jones and Walsh (21). The initial rates of iron chelation were calculated by taking the linear ascending part of the multiphasic reaction curve, averaged from 3 independent assays/protein preparations and 2-3 independent protein preparations.
Triton X-100 and Urea. One set of reactions was treated with Triton X-100 at final concentrations of 0.1%, 1.0% or 10% (volume/volume). A second set of reactions was treated with urea at final concentrations of 1 mM, 10 mM, or 1M. A third set of reactions was treated with a control solution containing only buffer. All three sets of ferritin solutions were incubated further for 17-20 hours (i.e., overnight) at 4° C., then returned to room temperature. Iron release was initiated by the addition of 2.5 mM bipyridine, 2.5 mM NADH, and 2.5 mM FMN (final concentrations). The amount of iron released from ferritin was monitored at room temperature, over a period of one hour, by appearance of absorbance at 522 nm due to formation of the Fe(II)-bipyridyl complex.
Urea, Guanidine HCl, and Triton X-100. The effects on iron release from ferritin of urea, guanidine hydrochloride, and Triton X-100 were studied by mixing solutions of the mineralized protein with a protein unfolding reagent and incubating at room temperature for 1 hour, followed by incubating overnight at 4° C. before adding reductant and chelator. […]

HeLa cells = assay: Cell viability by trypan blue exclusion test
Procedure: HeLa cells, cultured in DMEM medium with 10% FBS, were incubated with the protein unfolding agents for 24 hours at 37° C. in 12-well plates. Cells were treated with trypsin, fresh medium was added and the cells were suspended in the fresh DMEM medium with 10% FBS. Cell suspensions were mixed 1:4 with trypan blue in 0.85% NaCl (weight/volume), incubated 5 minutes at room temperature, then examined by light microscopy in a hemocytometer chamber. Blue cells are scored as non-viable. For each condition, 1-3 analyses were performed.

ferritin [2] = molecular target: T1, ferritin; assay: Subdomain unfolding of ferritin by circular dichroism (helix/coil transition); set-up: species or system bullfrog
Procedure: The effects of protein unfolding agents on subdomain unfolding of ferritin were monitored as changes in the Circular Dichroism (CD) spectra. Both wild type ferritin (H-WT) and the open pore mutant H-L134P were analyzed. Solutions of mineralized protein (2.08×10^−1 μM in 10 mM MOPS buffer, pH 7.0), were incubated with or without 1 mM urea overnight as described herein, and equilibrated for 10 minutes at the selected temperature before recording spectra between 300 nm to 200 nm. CD spectra recorded on a Pi-180 spectrophotometer (Applied Photophysics, Surrey, UK) over the temperature range of 5° C. to 65° C. Spectra were recorded in a cuvette with a 1 cm path length at protein concentrations of 2×10^−7 M, except for H-L134P, the protein with fully open pores in protein crystals, where the concentration was 4×10^−7 M to compensate for the lower signal at higher temperatures. Contributions of the solvent to the protein spectra were subtracted. Molar ellipticities at 220 nm were determined from the optical rotation, and the percent alpha helix content was calculated as described by Frére et al (Frere, V., Sourgen, F., Monnot, M., Troalen, F. & Fermandjian, S. (1995) J Biol Chem 270, 17502-17507) and Zhong and Johnson (Zhong, L. & Johnson, W. C. J. (1992) Proc Natl Acad Sci USA 89, 4462-4465). Curves were fit to the data using Sigmaplot 8.0. Fits and data matched with P<0.001. Data presented for H-L 134P ferritin are representative of two sets of measurements on one preparation and the data for the H-wild type protein, with and without urea, are representative of 3 independent protein preparations.

ferritin [3] = molecular target: T1, ferritin; assay: Fe uptake and mineralization / Fe(II) oxidation at the ferroxidase site (A650); format: biochemical, bullfrog
Procedure: The temperature of the helix coil/transition in the pore was lower in both H-L134P protein and the wild type protein +1 mM urea (FIG. 3B) and is in the physiological range. […] However, the stability of the partially unfolded H-L 134P protein was lower, and loss of helix continued between 45° C. and 65° C. […] Rates were 1.9±0.1×10^−3, 2.93±0.1×10^−3 and 4.68±0.06×10^−3 mmoles/second for H-WT ferritin+1 mM urea, H-L134P ferritin and Wild Type H ferritin+1M urea, respectively (FIGS. 2A, B). The local nature of the helix/coil transition induced by 1 mM urea observed between 35° C. and 50° C. (FIG. 3B), is emphasized by the small effects on other ferritin functions such as Fe uptake and mineralization where the rates were 0.67±0.01 and 0.57±0.01 ΔA650s^−1 for zero and 10 mM urea, respectively, for 480 Fe/protein.

ferritin [4] = molecular target: T1, ferritin; assay: Iron release from ferritin with Desferal substituted for bipyridyl, Fe(III)-Desferal complex monitored at 430 nm; format: biochemical; details: H-Wild Type ferritin, in the absence of urea
Description: Desferal® (desferrioxamine mesylate or DFO), a chelator of Fe(III), is currently the drug of choice to remove Fe from patients with excess tissue iron accumulated from monthly transfusions to treat betaglobin gene mutations (Sickle Cell Disease and Beta Thalassemia). Positive selection has made the mutations relatively common (<10%) in areas of the world where malaria is endemic. […] In order to determine if unfolding ferritin pores increased Desferal® chelation of ferritin Fe, the chelator was substituted for bipyridyl in the mixture of NADH/FMN usually used. Formation of the Fe(III)— Desferal® complex was monitored at 430 nm, the absorbance maximum under the conditions used.

ferritin [5] = details: Crichton et al. 1980; cited from earlier work
[6] = 1.0 mM to 1 M urea or guanidine
[7] = 1M NaCl, MOPS buffer (data not shown)

Molecule: Cl.N=C(N)N [guanidine, guanidine hydrochloride]
- effect on formation rate of Fe(II)-bipyridyl (ferritin [1]; Gd.HCl at 0.1 mM): increased rates significantly
- effect on ferritin iron release (formation rate of Fe(II)-bipyridyl) (ferritin [1]; Gd.HCl at 1 and 10 mM): comparable to the effect of 1 and 10 mM urea
- Average % nonviable cells (HeLa cells; 1 mM, 24 hours at 37° C.): 6%
- cell viability versus cells in normal medium (HeLa cells; indicated concentrations (1 mM)): No significant difference

Molecule: NC(N)=O [urea]
- downshift of a helix/coil transition (ferritin [2]; [6]): 10 °C
- helix/coil transition temperature after downshift (ferritin [2]; [6]): 43 °C
- Tm (midpoint) of decrease in helix structure (ferritin [2]; WT ferritin, 1 mM urea): 41 °C
- helix loss (ferritin [2]; WT ferritin, 1 mM urea): ~10%
- increase of transition temperature in the absence of urea versus 1 mM urea (ferritin [2]; wild type ferritin): 12 °C
- rate of Fe uptake and mineralization (ferritin [3]; 10 mM urea, 480 Fe/protein): 0.57±0.01 ΔA650s^−1
- Fe(II) oxidation, a measure of Fe(II) entry and binding to the ferroxidase site (ferritin [3]; urea-treated ferritin): slightly inhibited
- time for removal of >95% of the Fe (ferritin [1]; 1 mM urea): 33 min
- time for removal of >95% of the Fe (ferritin [1]; 10 mM urea): 13 min
- increase over the initial rate without urea (ferritin [1]; 1 M urea): 4.81 fold
- time for removal of >95% of the Fe (ferritin [1]; 1 M urea): 4 min
- initial rate of Fe(II) bipyridyl formation (ferritin [1]; 2 M urea): 1.02±0.11×10^−3 mmoles/second
- time for removal of >95% of the Fe (ferritin [1]; 2 M urea): 20 min
- initial rate of Fe(II) bipyridyl formation (ferritin [1]; H-WT ferritin, 1 mM urea): 1.90±0.11×10^−3 mmole/second and 1.9±0.1×10^−3 mmole/second
- initial rate of Fe(II) bipyridyl formation (ferritin [1]; H-WT ferritin, 1 M urea): 4.68±0.06×10^−3 mmoles/second
- decrease in the time to release 50% of the total iron in ferritin (ferritin [1]; chelator 2,2′-bipyridine, absorbance at 522 nm=0.4): 10 fold
- increase in the initial rate of iron release (ferritin [1]): 2-4 fold
- most effective concentrations (ferritin [1]; urea, enhancement of iron release): 1 to 1000 mM
- Fe(II)-bipyridyl formation in the absence of FMN/NADH (ferritin [1]; urea-treated protein, no reductant): No Fe(II)-bipyridyl formed

Molecule: Triton X-100
- most effective concentration (ferritin [1]; Triton X-100, enhancement of iron release): 1.0-10 % (volume/volume)
- effect on ferritin iron release (formation rate of Fe(II)-bipyridyl) (ferritin [1]; Triton X-100 at 1% and 10%): comparable to the effect of 1 and 10 mM urea
- increase in the initial rate of iron release (ferritin [1]): 2-3 fold
- toxicity to cells (HeLa cells; 1.0% and 10% (data not shown)): toxic

Molecule: [Cl-].[Na+] [NaCl, Sodium chloride, reference compound]
- initial rate of Fe(II)-bipyridyl formation (ferritin [1]; [7]): decreased
- total amount of Fe chelated (ferritin [1]; [7]): decreased

Molecule: CC(=O)N(O)CCCCCNC(=O)CCC(=O)N(O)CCCCCNC(=O)CCC(=O)N(O)CCCCCN [Desferal®, desferrioxamine mesylate]
- Fe that could be chelated (ferritin [4]): 10%
- Fe removal from ferritin in solution (ferritin [5]): removes little Fe
